According to patent publication US12398120B2, “Substituted hydantoinamides as ADAMTS7 antagonists” (BAYER AKTIENGESELLSCHAFT, priority 2019, dated 2025):

molecular target: ADAMTS4 (Homo sapiens (Human), UniProt O75173); assay: Selectivity assay for ADAMTS-7 modulators: ADAMTS4 (FRET substrate); format: biochemical; conditions: ADAMTS4 (R&D 4307-AD) 50 nM, substrate Dabcyl-EEVKAKVQPY-Glu(Edans)-NH2 1 μM, 120 min, 32° C.
Summary of the method: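 Human ADAMTS4 with compound in DMSO, or DMSO control; reaction started by adding FRET substrate in reaction buffer. Fluorescence increase measured at substrate-specific wavelengths. IC50 derived from % inhibition of enzyme activity versus compound concentration.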

Sequence of ADAMTS4 (O75173 213-685): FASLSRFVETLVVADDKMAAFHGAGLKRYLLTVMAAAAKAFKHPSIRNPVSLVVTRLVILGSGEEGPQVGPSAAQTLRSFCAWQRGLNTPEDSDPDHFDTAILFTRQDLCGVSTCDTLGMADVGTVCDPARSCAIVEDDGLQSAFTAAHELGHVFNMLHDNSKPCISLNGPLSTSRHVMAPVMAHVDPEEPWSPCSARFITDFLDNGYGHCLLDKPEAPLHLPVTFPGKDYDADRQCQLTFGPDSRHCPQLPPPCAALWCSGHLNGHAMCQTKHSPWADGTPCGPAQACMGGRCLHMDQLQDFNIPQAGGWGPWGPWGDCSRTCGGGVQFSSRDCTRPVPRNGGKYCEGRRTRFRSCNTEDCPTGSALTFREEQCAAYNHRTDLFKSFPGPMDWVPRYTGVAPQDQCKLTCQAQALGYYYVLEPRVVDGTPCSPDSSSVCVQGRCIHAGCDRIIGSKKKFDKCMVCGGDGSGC

| SMILES | IC50 [µM] |
| --- | --- |
| COc1ccc(C(=O)NC[C@@]2(C3CC3)NC(=O)NC2=O)c(-c2ccc(C3CC3)cc2)c1 [Example 103, 4′-Cyclopropyl-N-{[(4R)-4-Cyclopropyl-2,5-Dioxoimidazolidin-4-Yl]Methyl}-5-Methoxy[Biphenyl]-2-Carboxamide] | 7.1 |
| O=C1NC(=O)[C@](CNC(=O)c2ccc(F)cc2-c2ccc(C3CC3)cc2)(C2CC2)N1 [Example 104, 4′-Cyclopropyl-N-{[(4R)-4-Cyclopropyl-2,5-Dioxoimidazolidin-4-Yl]Methyl}-5-Fluoro[Biphenyl]-2-Carboxamide] | 8.7 |
| COc1ccc(C(=O)NC[C@@]2(C3CC3)NC(=O)NC2=O)c(-c2ccc(C(F)(F)F)cc2)c1 [Example 107, N-{[(4R)-4-Cyclopropyl-2,5-Dioxoimidazolidin-4-Yl]Methyl}-5-Methoxy-4′-(Trifluoromethyl)[Biphenyl]-2-Carboxamide] | 6.2 |
| O=C1NC(=O)[C@](CNC(=O)c2ccc(C(F)(F)F)cc2-c2ccc(C3CC3)cc2)(C2CC2)N1 [Example 108, 4′-Cyclopropyl-N-{[(4R)-4-Cyclopropyl-2,5-Dioxoimidazolidin-4-Yl]Methyl}-5-(Trifluoromethyl)[Biphenyl]-2-Carboxamide] | 19 |
| Cc1cccc(C(=O)NC[C@@]2(C3CC3)NC(=O)NC2=O)c1-c1ccc(C(F)(F)F)cc1 [Example 109, N-{[(4R)-4-Cyclopropyl-2,5-Dioxoimidazolidin-4-Yl]Methyl}-6-Methyl-4′-(Trifluoromethyl)[Biphenyl]-2-Carboxamide] | 8.7 |
| CCc1ccc(-c2cc(F)ccc2C(=O)NC[C@@]2(C3CC3)NC(=O)NC2=O)cc1 [Example 110, N-{[(4R)-4-Cyclopropyl-2,5-Dioxoimidazolidin-4-Yl]Methyl}-4′-Ethyl-5-Fluoro[Biphenyl]-2-Carboxamide] | 7.9 |
| O=C1NC(=O)[C@](CNC(=O)c2ccc(F)cc2-c2ccc(C(F)(F)F)cc2)(C2CC2)N1 [Example 116, N-{[(4R)-4-Cyclopropyl-2,5-Dioxoimidazolidin-4-Yl]Methyl}-5-Fluoro-4′-(Trifluoromethyl)[Biphenyl]-2-Carboxamide] | 12 |
| O=C1NC(=O)[C@](CNC(=O)c2ccc(C(F)(F)F)cc2-c2ccc(C(F)(F)F)cc2)(C2CC2)N1 [Example 117, N-{[(4R)-4-Cyclopropyl-2,5-Dioxoimidazolidin-4-Yl]Methyl}-4′,5-Bis(Trifluoromethyl)[Biphenyl]-2-Carboxamide] | 61 |
| O=C1NC(=O)[C@](CNC(=O)c2cc(F)ccc2-c2ccc(C(F)(F)F)cc2)(C2CC2)N1 [Example 121, N-{[(4R)-4-Cyclopropyl-2,5-Dioxoimidazolidin-4-Yl]Methyl}-4-Fluoro-4′-(Trifluoromethyl)[Biphenyl]-2-Carboxamide] | 5.9 |
| O=C1NC(=O)[C@](CNC(=O)c2ccc(F)cc2-c2ccc(Cl)cc2)(C2CC2)N1 [Example 126, 4′-Chloro-N-{[(4R)-4-Cyclopropyl-2,5-Dioxoimidazolidin-4-Yl]Methyl}-5-Fluoro[Biphenyl]-2-Carboxamide] | 11 |
| O=C1NC(=O)[C@](CNC(=O)c2ccc(F)cc2-c2ccc(F)cc2)(C2CC2)N1 [Example 128, N-{[(4R)-4-Cyclopropyl-2,5-Dioxoimidazolidin-4-Yl]Methyl}-4′,5-Difluoro[Biphenyl]-2-Carboxamide] | 13 |
| Cc1ccc(-c2ncccc2C(=O)NC[C@@]2(C3CC3)NC(=O)NC2=O)cc1 [Example 132, N-{[(4R)-4-Cyclopropyl-2,5-Dioxoimidazolidin-4-Yl]Methyl}-2-(4-Methylphenyl)Nicotinamide] | 36 |
| Cc1ccc(C(=O)NCC2(c3nccn3C)NC(=O)NC2=O)c(-c2ccc(C3CC3(F)F)cc2)c1 (stereo not drawn) [Example 135, 4′-(2,2-Difluorocyclopropyl)-5-Methyl-N-{[4-(1-Methyl-1H-Imidazol-2-Yl)-2,5-Dioxoimidazolidin-4-Yl]Methyl}[1,1′-Biphenyl]-2-Carboxamide] | 1.3 |
| Cc1ccc(C(=O)NC[C@@]2(C3CC3)NC(=O)NC2=O)c(-c2ccc(C3CC3(F)F)cc2)c1 (stereo partly drawn) [Example 136, N-{[(4R)-4-Cyclopropyl-2,5-Dioxoimidazolidin-4-Yl]Methyl}-4′-(2,2-Difluorocyclopropyl)-5-Methyl[1,1′-Biphenyl]-2-Carboxamide] | 7.1 |
| Cn1ccnc1C1(CNC(=O)c2cc(F)ccc2-c2ccc(C3CC3(F)F)cc2)NC(=O)NC1=O (stereo not drawn) [Example 139, 4′-(2,2-Difluorocyclopropyl)-4-Fluoro-N-{[4-(1-Methyl-1H-Imidazol-2-Yl)-2,5-Dioxoimidazolidin-4-Yl]Methyl}[1,1′-Biphenyl]-2-Carboxamide] | 2.1 |

Continued, values first:

| IC50 [µM] | SMILES |
| --- | --- |
| 4.9 | O=C1NC(=O)[C@](CNC(=O)c2ccccc2-c2ccc(C3CC3)cc2)(C2CC2)N1 [Example 105, 4′-Cyclopropyl-N-{[(4R)-4-Cyclopropyl-2,5-Dioxoimidazolidin-4-Yl]Methyl}[Biphenyl]-2-Carboxamide] |
| 5.4 | CCc1ccc(-c2ccccc2C(=O)NC[C@@]2(C3CC3)NC(=O)NC2=O)cc1 [Example 106, N-{[(4R)-4-Cyclopropyl-2,5-Dioxoimidazolidin-4-Yl]Methyl}-4′-Ethyl[Biphenyl]-2-Carboxamide] |
| 7.9 | O=C1NC(=O)[C@](CNC(=O)c2ccccc2-c2ccc(C3CC3(F)F)cc2)(C2CC2)N1 (stereo partly drawn) [Example 111, N-{[(4R)-4-Cyclopropyl-2,5-Dioxoimidazolidin-4-Yl]Methyl}-4′-(2,2-Difluorocyclopropyl)[Biphenyl]-2-Carboxamide] |
| 2.2 | O=C1NC(=O)[C@](CNC(=O)c2ccccc2-c2ccc(C3CCC3)cc2)(C2CC2)N1 [Example 112, 4′-Cyclobutyl-N-{[(4R)-4-Cyclopropyl-2,5-Dioxoimidazolidin-4-Yl]Methyl}[Biphenyl]-2-Carboxamide] |
| 12 | CC(C)(C)c1ccc(-c2ccccc2C(=O)NC[C@@]2(C3CC3)NC(=O)NC2=O)cc1 [Example 113, 4′-Tert-Butyl-N-{[(4R)-4-Cyclopropyl-2,5-Dioxoimidazolidin-4-Yl]Methyl}[Biphenyl]-2-Carboxamide] |
| 10.2 | O=C1NC(=O)[C@](CNC(=O)c2ccccc2-c2ccc(C(F)(F)F)cc2)(C2CC2)N1 [Example 114, N-{[(4R)-4-Cyclopropyl-2,5-Dioxoimidazolidin-4-Yl]Methyl}-4′-(Trifluoromethyl)[Biphenyl]-2-Carboxamide] |
| 7.8 | O=C1NC(=O)[C@](CNC(=O)c2ccccc2-c2ccc(C3(C(F)(F)F)CC3)cc2)(C2CC2)N1 [Example 115, N-{[(4R)-4-Cyclopropyl-2,5-Dioxoimidazolidin-4-Yl]Methyl}-4′-[1-(Trifluoromethyl)Cyclopropyl][Biphenyl]-2-Carboxamide] |
| 7.6 | CC(C)c1ccc(-c2ccccc2C(=O)NC[C@@]2(C3CC3)NC(=O)NC2=O)cc1 [Example 118, N-{[(4R)-4-Cyclopropyl-2,5-Dioxoimidazolidin-4-Yl]Methyl}-4′-Isopropyl[Biphenyl]-2-Carboxamide] |
| 9.1 | O=C1NC(=O)[C@](CNC(=O)c2ccccc2-c2ccc(CC(F)(F)F)cc2)(C2CC2)N1 [Example 119, N-{[(4R)-4-Cyclopropyl-2,5-Dioxoimidazolidin-4-Yl]Methyl}-4′-(2,2,2-Trifluoroethyl)[Biphenyl]-2-Carboxamide] |
| 35 | CC(C)(c1ccc(-c2ccccc2C(=O)NC[C@@]2(C3CC3)NC(=O)NC2=O)cc1)C(F)(F)F [Example 120, N-{[(4R)-4-Cyclopropyl-2,5-Dioxoimidazolidin-4-Yl]Methyl}-4′-(1,1,1-Trifluoro-2-Methylpropan-2-Yl)[Biphenyl]-2-Carboxamide] |
| 7.9 | O=C1NC(=O)[C@](CNC(=O)c2ccccc2-c2ccc(C(F)F)cc2)(C2CC2)N1 [Example 122, N-{[(4R)-4-Cyclopropyl-2,5-Dioxoimidazolidin-4-Yl]Methyl}-4′-(Difluoromethyl)[Biphenyl]-2-Carboxamide] |
| 19 | CC(C)(C#N)c1ccc(-c2ccccc2C(=O)NC[C@@]2(C3CC3)NC(=O)NC2=O)cc1 [Example 123, 4′-(2-Cyanopropan-2-Yl)-N-{[(4R)-4-Cyclopropyl-2,5-Dioxoimidazolidin-4-Yl]Methyl}[Biphenyl]-2-Carboxamide] |
| 42 | CC(C)(C)c1ccc(-c2cc(F)ccc2C(=O)NC[C@@]2(C3CC3)NC(=O)NC2=O)cc1 [Example 124, 4′-Tert-Butyl-N-{[(4R)-4-Cyclopropyl-2,5-Dioxoimidazolidin-4-Yl]Methyl}-5-Fluoro[Biphenyl]-2-Carboxamide] |
| 8.7 | CC(F)(F)c1ccc(-c2ccccc2C(=O)NC[C@@]2(C3CC3)NC(=O)NC2=O)cc1 [Example 125, N-{[(4R)-4-Cyclopropyl-2,5-Dioxoimidazolidin-4-Yl]Methyl}-4′-(1,1-Difluoroethyl)[Biphenyl]-2-Carboxamide] |
| 13 | O=C1NC(=O)[C@](CNC(=O)c2ccccc2-c2ccc(OC(F)F)cc2)(C2CC2)N1 [Example 127, N-{[(4R)-4-Cyclopropyl-2,5-Dioxoimidazolidin-4-Yl]Methyl}-4′-(Difluoromethoxy)[Biphenyl]-2-Carboxamide] |
| 8.7 | O=C1NC(=O)[C@](CNC(=O)c2ccccc2-c2ccc(F)cc2)(C2CC2)N1 [Example 129, N-{[(4R)-4-Cyclopropyl-2,5-Dioxoimidazolidin-4-Yl]Methyl}-4′-Fluoro[Biphenyl]-2-Carboxamide] |
| 17.3 | COc1ccc(-c2ccccc2C(=O)NC[C@@]2(C3CC3)NC(=O)NC2=O)cc1 [Example 130, N-{[(4R)-4-Cyclopropyl-2,5-Dioxoimidazolidin-4-Yl]Methyl}-4′-Methoxy[Biphenyl]-2-Carboxamide] |
| 8.7 | O=C1NC(=O)[C@](CNC(=O)c2ccccc2-c2ccccc2)(C2CC2)N1 [Example 131, N-{[(4R)-4-Cyclopropyl-2,5-Dioxoimidazolidin-4-Yl]Methyl}[Biphenyl]-2-Carboxamide] |
